Experiments:
[1] = tested on: HCT-116; assay: Induction of apoptosis in human HCT-116 cells assessed as early apoptotic cells at 2.5 uM measured after 24 hrs by Annexin-V Alexa Fluor488/propidium iodide staining based flow cytometry (reference value: 6.3%); format: functional
[2] = tested on: SK-MEL-28; assay: Growth inhibition of human SK-MEL-28 cells measured after 48 hrs by SRB assay; format: functional
[3] = tested on: HCT-116; assay: Induction of apoptosis in human HCT-116 cells assessed as viable cells at 1.25 uM measured after 48 hrs by Annexin-V Alexa Fluor488/propidium iodide staining based flow cytometry (reference value: 82.3%); format: functional; conditions: read-out: Activity
[4] = tested on: HCT-116; assay: Cell cycle arrest in human HCT-116 cells assessed as accumulation at S phase at 2.5 uM measured after 24 hrs by propidium iodide staining based flow cytometry (reference value: 7.2%); format: functional
[5] = tested on: CCRF-CEM; assay: Growth inhibition of human CCRF-CEM cells measured after 48 hrs by SRB assay; format: functional
[6] = tested on: TK-10; assay: Growth inhibition of human TK-10 cells measured after 48 hrs by SRB assay; format: functional
[7] = tested on: HCT-116; assay: Cell cycle arrest in human HCT-116 cells assessed as accumulation at sub-G1 phase at 1.25 uM measured after 24 hrs by propidium iodide staining based flow cytometry (reference value: 8.7%); format: functional
[8] = tested on: OVCAR-4; assay: Growth inhibition of human OVCAR-4 cells measured after 48 hrs by SRB assay; format: functional
[9] = tested on: SF-295; assay: Growth inhibition of human SF-295 cells measured after 48 hrs by SRB assay; format: functional
[10] = tested on: KM12; assay: Growth inhibition of human KM12 cells measured after 48 hrs by SRB assay; format: functional
[11] = tested on: HCT-116; assay: Cell cycle arrest in human HCT-116 cells assessed as accumulation at G2/M phase at 2.5 uM measured after 24 hrs by propidium iodide staining based flow cytometry (reference value: 19.2%); format: functional
[12] = tested on: Panel NCI-60 (60 carcinoma cell lines); assay: Growth inhibition of human Panel NCI-60 (60 carcinoma cell lines) cells at 10 uM measured after 48 hrs by SRB assay relative to control; format: functional; conditions: read-out: GI
[13] = tested on: HCT-116; assay: Cell cycle arrest in human HCT-116 cells assessed as accumulation at G2/M phase at 5 uM measured after 24 hrs by propidium iodide staining based flow cytometry (reference value: 19.2%); format: functional
[14] = tested on: NCI-H460; assay: Growth inhibition of human NCI-H460 cells measured after 48 hrs by SRB assay; format: functional
[15] = tested on: HCT-116; assay: Cell cycle arrest in human HCT-116 cells assessed as accumulation at G1/G0 phase at 5 uM measured after 24 hrs by propidium iodide staining based flow cytometry (reference value: 65%); format: functional
[16] = tested on: HCT-116; assay: Cell cycle arrest in human HCT-116 cells assessed as accumulation at S phase at 1.25 uM measured after 24 hrs by propidium iodide staining based flow cytometry (reference value: 7.2%); format: functional
[17] = tested on: SR; assay: Growth inhibition of human SR cells measured after 48 hrs by SRB assay; format: functional
[18] = Cytotoxicity against African green monkey Vero cells assessed as cell viability at 3 uM measured after 48 hrs by EZ-Cytox assay relative to control; format: cell-based; conditions: chlorocebus sabaeus, read-out: Activity
[19] = tested on: HCT-116; assay: Induction of apoptosis in human HCT-116 cells assessed as late apoptotic cells at 5 uM measured after 24 hrs by Annexin-V Alexa Fluor488/propidium iodide staining based flow cytometry (reference value: 1%); format: functional
[20] = tested on: M14; assay: Growth inhibition of human M14 cells measured after 48 hrs by SRB assay; format: functional; conditions: for CC50: read-out: LC50 (the source's name)
[21] = tested on: HCT-116; assay: Cell cycle arrest in human HCT-116 cells assessed as accumulation at S phase at 5 uM measured after 24 hrs by propidium iodide staining based flow cytometry (reference value: 7.2%); format: functional
[22] = tested on: HCT-116; assay: Induction of apoptosis in human HCT-116 cells assessed as viable cells at 5 uM measured after 24 hrs by Annexin-V Alexa Fluor488/propidium iodide staining based flow cytometry (reference value: 88.1%); format: functional; conditions: read-out: Activity
[23] = tested on: HCT-116; assay: Cell cycle arrest in human HCT-116 cells assessed as accumulation at sub-G1 phase at 5 uM measured after 24 hrs by propidium iodide staining based flow cytometry (reference value: 8.7%); format: functional
[24] = tested on: LOX IMVI; assay: Growth inhibition of human LOX IMVI cells at 10 uM measured after 48 hrs by SRB assay relative to control; format: functional; conditions: read-out: GI
[25] = tested on: HCT-116; assay: Cell cycle arrest in human HCT-116 cells assessed as accumulation at G2/M phase at 5 uM measured after 48 hrs by propidium iodide staining based flow cytometry (reference value: 20.4%); format: functional
[26] = tested on: Serine/threonine-protein kinase B-raf (Homo sapiens), P15056 [V600E]; assay: Inhibition of human BRAF V600E mutant at 10 uM using MEK1 (K97R) as substrate in presence of [gamma-33P]ATP by scintillation counting method relative to control
[27] = tested on: HCT-116; assay: Cell cycle arrest in human HCT-116 cells assessed as accumulation at S phase at 2.5 uM measured after 48 hrs by propidium iodide staining based flow cytometry (reference value: 10.4%); format: functional
[28] = target: Epithelial discoidin domain-containing receptor 1 (Homo sapiens, UniProt Q08345); assay: Inhibition of human DDR1 at 10 uM using KKSRGDYMTMQIG as substrate in presence of [gamma-33P]ATP by scintillation counting method relative to control
[29] = tested on: HCT-116; assay: Cell cycle arrest in human HCT-116 cells assessed as accumulation at S phase at 5 uM measured after 48 hrs by propidium iodide staining based flow cytometry (reference value: 10.4%); format: functional
[30] = target: Macrophage colony-stimulating factor 1 receptor (Homo sapiens) (UniProt P07333); assay: Inhibition of human FMS at 10 uM using poly[Glu:Tyr] (4:1) as substrate in presence of [gamma-33P]ATP by scintillation counting method relative to control
[31] = target: Serine/threonine-protein kinase B-raf (Homo sapiens, UniProt P15056); assay: Inhibition of human BRAF at 10 uM using MEK1 (K97R) as substrate in presence of [gamma-33P]ATP by scintillation counting method relative to control
[32] = target: Discoidin domain-containing receptor 2 (Homo sapiens) (UniProt Q16832); assay: Inhibition of human DDR2 at 10 uM using KKSRGDYMTMQIG as substrate in presence of [gamma-33P]ATP by scintillation counting method relative to control
[33] = target: RAF proto-oncogene serine/threonine-protein kinase (Homo sapiens, UniProt P04049); assay: Inhibition of human CRAF at 10 uM using MEK1 (K97R) as substrate in presence of [gamma-33P]ATP by scintillation counting method relative to control
[34] = tested on: HCT-116; assay: Cell cycle arrest in human HCT-116 cells assessed as accumulation at G1/G0 phase at 1.25 uM measured after 48 hrs by propidium iodide staining based flow cytometry (reference value: 52.2%); format: functional
[35] = tested on: HCT-116; assay: Cell cycle arrest in human HCT-116 cells assessed as accumulation at sub-G1 phase at 5 uM measured after 48 hrs by propidium iodide staining based flow cytometry (reference value: 17%); format: functional

Chain of Macrophage colony-stimulating factor 1 receptor (Homo sapiens) (P07333 whole entry): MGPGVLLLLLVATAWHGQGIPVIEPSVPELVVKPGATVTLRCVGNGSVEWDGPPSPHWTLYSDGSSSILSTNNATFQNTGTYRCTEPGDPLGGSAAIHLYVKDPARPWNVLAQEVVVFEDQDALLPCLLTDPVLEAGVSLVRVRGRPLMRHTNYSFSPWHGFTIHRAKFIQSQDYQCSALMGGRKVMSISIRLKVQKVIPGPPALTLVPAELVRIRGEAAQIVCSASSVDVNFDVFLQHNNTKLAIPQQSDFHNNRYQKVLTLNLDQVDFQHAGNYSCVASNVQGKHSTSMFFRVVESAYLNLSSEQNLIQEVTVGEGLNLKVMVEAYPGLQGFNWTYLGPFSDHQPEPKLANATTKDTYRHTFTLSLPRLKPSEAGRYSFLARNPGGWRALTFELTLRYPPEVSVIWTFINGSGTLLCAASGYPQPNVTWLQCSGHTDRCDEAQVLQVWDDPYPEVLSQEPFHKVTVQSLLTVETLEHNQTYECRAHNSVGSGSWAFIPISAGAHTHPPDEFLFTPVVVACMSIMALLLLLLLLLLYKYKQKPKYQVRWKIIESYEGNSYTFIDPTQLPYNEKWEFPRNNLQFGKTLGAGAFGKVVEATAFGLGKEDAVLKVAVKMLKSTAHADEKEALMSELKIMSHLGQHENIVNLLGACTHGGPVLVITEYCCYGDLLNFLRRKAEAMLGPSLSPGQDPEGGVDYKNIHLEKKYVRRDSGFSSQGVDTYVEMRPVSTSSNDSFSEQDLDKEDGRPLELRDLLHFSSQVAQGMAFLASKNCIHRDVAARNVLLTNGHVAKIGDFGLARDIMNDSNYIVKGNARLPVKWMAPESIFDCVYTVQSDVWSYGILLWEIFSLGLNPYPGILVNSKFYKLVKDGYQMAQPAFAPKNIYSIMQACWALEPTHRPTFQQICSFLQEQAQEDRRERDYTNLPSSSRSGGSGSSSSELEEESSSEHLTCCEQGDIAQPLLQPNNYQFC
Chain of Serine/threonine-protein kinase B-raf (P15056 whole entry, the tested form may be a part): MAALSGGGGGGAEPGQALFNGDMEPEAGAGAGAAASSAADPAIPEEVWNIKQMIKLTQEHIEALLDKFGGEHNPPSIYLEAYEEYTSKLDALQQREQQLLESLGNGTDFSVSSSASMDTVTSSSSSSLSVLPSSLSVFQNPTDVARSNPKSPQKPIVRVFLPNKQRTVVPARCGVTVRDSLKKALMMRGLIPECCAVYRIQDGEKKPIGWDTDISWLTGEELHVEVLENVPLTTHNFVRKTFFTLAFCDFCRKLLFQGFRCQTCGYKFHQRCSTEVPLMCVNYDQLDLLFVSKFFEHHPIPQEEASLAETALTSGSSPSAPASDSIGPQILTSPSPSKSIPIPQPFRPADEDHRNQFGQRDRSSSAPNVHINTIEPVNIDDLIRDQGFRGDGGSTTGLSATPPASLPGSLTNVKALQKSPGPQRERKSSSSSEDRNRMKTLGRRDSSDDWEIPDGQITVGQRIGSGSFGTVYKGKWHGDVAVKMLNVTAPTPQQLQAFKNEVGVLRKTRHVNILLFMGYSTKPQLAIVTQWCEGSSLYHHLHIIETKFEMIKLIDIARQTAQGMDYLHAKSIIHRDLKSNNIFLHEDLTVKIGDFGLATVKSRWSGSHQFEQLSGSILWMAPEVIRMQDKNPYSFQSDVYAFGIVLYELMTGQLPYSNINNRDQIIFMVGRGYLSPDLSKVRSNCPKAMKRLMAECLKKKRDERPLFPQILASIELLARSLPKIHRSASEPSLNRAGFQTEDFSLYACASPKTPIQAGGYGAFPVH
Chain of Epithelial discoidin domain-containing receptor 1 (Q08345 whole entry, the tested form may be a part): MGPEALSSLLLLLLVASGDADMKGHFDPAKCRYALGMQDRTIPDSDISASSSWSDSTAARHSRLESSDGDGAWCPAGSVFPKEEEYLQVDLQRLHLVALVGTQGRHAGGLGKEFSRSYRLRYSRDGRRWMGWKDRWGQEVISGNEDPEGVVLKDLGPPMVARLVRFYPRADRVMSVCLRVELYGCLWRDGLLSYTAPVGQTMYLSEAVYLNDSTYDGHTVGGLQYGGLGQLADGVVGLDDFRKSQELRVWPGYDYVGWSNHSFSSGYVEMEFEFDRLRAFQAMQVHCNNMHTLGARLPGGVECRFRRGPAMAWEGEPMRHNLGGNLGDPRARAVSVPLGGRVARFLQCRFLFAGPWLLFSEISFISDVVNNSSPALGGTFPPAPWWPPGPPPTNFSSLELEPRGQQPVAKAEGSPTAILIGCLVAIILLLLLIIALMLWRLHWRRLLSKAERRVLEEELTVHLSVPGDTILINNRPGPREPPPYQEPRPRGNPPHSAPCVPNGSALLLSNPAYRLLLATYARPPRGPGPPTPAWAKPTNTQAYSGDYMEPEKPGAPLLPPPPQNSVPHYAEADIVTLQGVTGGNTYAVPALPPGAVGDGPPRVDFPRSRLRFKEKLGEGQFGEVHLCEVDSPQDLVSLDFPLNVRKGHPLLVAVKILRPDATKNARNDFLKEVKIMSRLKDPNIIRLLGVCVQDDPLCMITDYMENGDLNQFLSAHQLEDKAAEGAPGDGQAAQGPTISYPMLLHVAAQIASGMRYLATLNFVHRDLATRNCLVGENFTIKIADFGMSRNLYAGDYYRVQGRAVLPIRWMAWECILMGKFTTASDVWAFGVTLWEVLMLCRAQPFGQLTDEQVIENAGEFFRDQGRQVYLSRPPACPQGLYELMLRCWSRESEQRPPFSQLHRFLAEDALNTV
Chain of RAF proto-oncogene serine/threonine-protein kinase (P04049 whole entry): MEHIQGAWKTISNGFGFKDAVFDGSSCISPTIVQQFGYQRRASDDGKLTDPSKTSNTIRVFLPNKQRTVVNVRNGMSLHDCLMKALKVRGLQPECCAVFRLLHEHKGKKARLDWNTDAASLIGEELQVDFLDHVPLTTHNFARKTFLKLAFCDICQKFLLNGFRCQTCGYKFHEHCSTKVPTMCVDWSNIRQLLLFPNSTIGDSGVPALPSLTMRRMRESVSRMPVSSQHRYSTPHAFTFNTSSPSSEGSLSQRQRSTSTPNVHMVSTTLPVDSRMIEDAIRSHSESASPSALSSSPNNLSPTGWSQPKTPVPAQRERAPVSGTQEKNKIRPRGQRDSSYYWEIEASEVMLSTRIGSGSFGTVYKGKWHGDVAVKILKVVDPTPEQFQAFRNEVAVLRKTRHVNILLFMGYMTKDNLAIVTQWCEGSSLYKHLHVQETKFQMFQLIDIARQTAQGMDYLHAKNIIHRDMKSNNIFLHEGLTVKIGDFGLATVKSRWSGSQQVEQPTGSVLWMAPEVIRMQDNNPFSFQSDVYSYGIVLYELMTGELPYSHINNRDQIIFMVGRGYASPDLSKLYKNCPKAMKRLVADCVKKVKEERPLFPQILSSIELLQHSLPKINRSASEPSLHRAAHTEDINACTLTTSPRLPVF
Chain of Serine/threonine-protein kinase B-raf (Homo sapiens), P15056 [V600E] (P15056 whole entry V600E): as the sequence (P15056 whole entry, the tested form may be a part) above, with V600E counted along it
Chain of Discoidin domain-containing receptor 2 (Homo sapiens) (Q16832 whole entry, the tested form may be a part): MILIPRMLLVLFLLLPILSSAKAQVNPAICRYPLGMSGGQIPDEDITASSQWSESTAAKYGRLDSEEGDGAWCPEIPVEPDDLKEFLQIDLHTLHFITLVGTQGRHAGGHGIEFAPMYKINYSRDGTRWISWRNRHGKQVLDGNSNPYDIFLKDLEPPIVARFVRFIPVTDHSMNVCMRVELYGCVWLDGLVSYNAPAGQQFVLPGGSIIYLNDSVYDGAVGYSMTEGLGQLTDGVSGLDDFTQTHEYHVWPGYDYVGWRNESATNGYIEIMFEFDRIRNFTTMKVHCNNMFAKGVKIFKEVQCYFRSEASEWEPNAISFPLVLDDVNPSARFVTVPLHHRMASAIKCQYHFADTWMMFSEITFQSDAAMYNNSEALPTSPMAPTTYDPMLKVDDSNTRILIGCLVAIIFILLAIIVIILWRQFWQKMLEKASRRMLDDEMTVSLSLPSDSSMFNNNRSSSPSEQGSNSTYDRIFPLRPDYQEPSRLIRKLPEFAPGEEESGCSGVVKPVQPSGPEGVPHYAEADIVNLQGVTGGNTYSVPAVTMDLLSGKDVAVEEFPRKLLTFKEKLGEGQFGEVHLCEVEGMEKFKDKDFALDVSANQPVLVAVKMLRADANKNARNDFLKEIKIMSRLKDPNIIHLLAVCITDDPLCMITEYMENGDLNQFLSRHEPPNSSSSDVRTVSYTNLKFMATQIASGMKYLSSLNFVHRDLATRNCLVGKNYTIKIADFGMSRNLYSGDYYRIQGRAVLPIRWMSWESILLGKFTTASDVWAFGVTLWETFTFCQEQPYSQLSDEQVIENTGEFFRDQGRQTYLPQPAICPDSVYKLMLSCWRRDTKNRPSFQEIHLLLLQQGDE

Row | SMILES | Activity [1] | GI50 [2] | viability at 1.25 µM [3] | GI50 [5] | LC50 [5] | TGI [5] | GI50 [6] | GI50 [8] | GI50 [9] | LC50 [9] | TGI [9] | GI50 [10] | inhibition of growth at 10 µM [12] | GI50 [14] | GI50 [17] | viability at 48 h, 3 µM [18] | Activity [19] | GI50 [20] | TGI [20] | CC50 [20] | further results
1 | COc1cccc2nc(Nc3cccc(NC(=O)c4ccc(N5CCN(C)CC5)c(C(F)(F)F)c4)c3)ccc12 | 6.1% | 896 nM | 81.7% | 1400 nM | > 50000 nM | > 50000 nM | 2010 nM | 1430 nM | 967 nM | 3820 nM | 1920 nM | 1090 nM | 86.8% | 964 nM | 1130 nM | 86.9% | 2.2% | 899 nM | 1950 nM | 4210 nM | Activity [4]: 7.3%; Activity [7]: 9.6%; Activity [11]: 15.1%; Activity [13]: 13.7%; Activity [15]: 71%; Activity [16]: 8.2%; Activity [21]: 6.3%; viability at 5 µM [22]: 85.1%; Activity [23]: 9.1%; inhibition of growth at 10 µM [24]: 197%
2 | CCN1CCN(c2cc(C(=O)Nc3cccc(Nc4ccc5c(OC)cccc5n4)c3)cc(C(F)(F)F)c2)CC1 | 15.6% | 846 nM | 82.7% | 758 nM | 8040 nM | 2060 nM | 3470 nM | 1570 nM | 803 nM | 11400 nM | 2250 nM | 1710 nM | 95% | 1340 nM | 883 nM | 76.8% | 0.8% | 668 nM | 1650 nM | 5860 nM | Activity [25]: 14.4%; inhibition [26]: 94.4%; Activity [27]: 9.2%; inhibition [28]: 94.5%; Activity [29]: 7.4%; inhibition [30]: 60.7%; inhibition [31]: 94.4%; inhibition [32]: 67.5%; inhibition [33]: 94.4%; Activity [34]: 54.7%; Activity [35]: 14.1%; viability at 5 µM [22]: 79.2%; inhibition of growth at 10 µM [24]: 194%

— ChEMBL document CHEMBL4706583, “2-Anilinoquinoline based arylamides as broad spectrum anticancer agents with B-RAF/C-RAF kinase inhibitory effects: Design, synthesis, in vitro cell-based and oncogenic kinase assessments” (Eur J Med Chem, 2020)
